In US7786108B2, “Compounds and method for treating dyslipidemia” (Eli Lilly and Company, priority 2004, dated 2010) one finds change in vivo data, which are given here for 9 molecules.

SMILES strings stand for the structures. Where a name gives a salt, the structure may show the parent alone.

The experiment relates to transgenic mice that express both human CETP and human apolipoprotein A-1. As to the kind of experiment: In vivo assay of plasma lipids: elevation of HDL cholesterol. Conditions: Mus musculus; single oral dose 30 mg/kg; HDL cholesterol in serum at 8 hr after administration; relative to a control; read-out: % HDL cholesterol increase. From the text: Additional serum lipids can be analyzed by enzymatic methods.

Consider `Cc1cc2c(cc1C(F)(F)F)N(C(=O)OC(C)C)CCC[C@@H]2N(Cc1cc(C(F)(F)F)cc(C(F)(F)F)c1)c1nnn(C)n1` [Example 16, (S)-5-[(3,5-Bis-trifluoromethyl-benzyl)-(2-methyl-2H-tetrazol-5-yl)-amino]-7-methyl-8-trifluoromethyl-2,3,4,5-tetrahydro-benzo[b]azepine-1-carboxylic acid isopropyl ester], for which the change in vivo at 30 mg/kg was found to be 82%. The same measure for `Cc1cc2c(c(C)c1C(F)(F)F)N(C[C@H]1CC[C@H](CC(=O)O)CC1)CCC[C@@H]2N(Cc1cc(Cl)cc(C(F)(F)F)c1)c1nnn(C)n1` [Example 201, (S)-(4-{5-[(3-Chloro-5-trifluoromethyl-benzyl)-(2-methyl-2H-tetrazol-5-yl)-amino]-7,9-dimethyl-8-trifluoromethyl-2,3,4,5-tetrahydro-benzo[b]azepin-1-ylmethyl}-cyclohexyl)-acetic acid]: 147%; for `Cc1cc2c(cc1C(F)(F)F)N(C1CCOCC1)CCC[C@@H]2N(Cc1cc(C(F)(F)F)cc(C(F)(F)F)c1)c1nnn(C)n1` [Example 139, (S)-(3,5-Bis-trifluoromethyl-benzyl)-[7-methyl-1-(tetrahydro-pyran-4-yl)-8-trifluoromethyl-2,3,4,5-tetrahydro-1H-benzo[b]azepin-5-yl]-(2-methyl-2H-tetrazol-5-yl)-amine]: 130%; for `Cc1cc2c(c(C)c1C(F)(F)F)N(CC1CC1)CCC[C@@H]2N(Cc1cc(C(F)(F)F)cc(C(F)(F)F)c1)c1nnn(C)n1` [Example 148, (S)-(3,5-Bis-trifluoromethyl-benzyl)-(1-cyclopropylmethyl-7,9-dimethyl-8-trifluoromethyl-2,3,4,5-tetrahydro-1H-benzo[b]azepin-5-yl)-(2-methyl-2H-tetrazol-5-yl)-amine]: 224%.

On to `CC(C)OC(=O)N1CCCC(N(Cc2cc(C(F)(F)F)cc(C(F)(F)F)c2)c2nnn(C)n2)c2cc3c(cc21)CCC3` (racemic) [Example 50, (+/−)-9-[(3,5-Bis-trifluoromethyl-benzyl)-(2-methyl-2H-tetrazol-5-yl)-amino]-2,3,6,7,8,9-hexahydro-1H-5-aza-cyclohepta[f]indene-5-carboxylic acid isopropyl ester], for which the change in vivo at 30 mg/kg was found to be 127%. Turning to `CCN1CCC[C@H](N(Cc2cc(C(F)(F)F)cc(C(F)(F)F)c2)c2nnn(C)n2)c2cc(C)c(C(F)(F)F)cc21` [Example 30, (S)-(3,5-Bis-trifluoromethyl-benzyl)-(1-ethyl-7-methyl-8-trifluoromethyl-2,3,4,5-tetrahydro-1H-benzo[b]azepin-5-yl)-(2-methyl-2H-tetrazol-5-yl)-amine], the change in vivo at 30 mg/kg was 54%. Turning to `Cc1cc2c(cc1C(F)(F)F)N(Cc1ccncc1)CCC[C@@H]2N(Cc1cc(Cl)cc(C(F)(F)F)c1)c1nnn(C)n1` [Example 191, (S)-(3-Chloro-5-trifluoromethyl-benzyl)-(7-methyl-1-pyridin-4-ylmethyl-8-trifluoromethyl-2,3,4,5-tetrahydro-1H-benzo[b]azepin-5-yl)-(2-methyl-2H-tetrazol-5-yl)-amine], the change in vivo at 30 mg/kg is 91%.

Regarding `Cc1cc2c(cc1C(F)(F)F)N(CC1CCCC1)CCC[C@@H]2N(Cc1cc(C(F)(F)F)cc(C(F)(F)F)c1)c1nnn(CCO)n1` [Example 27, (S)-2-{5-[(3,5-Bis-trifluoromethyl-benzyl)-(1-cyclopentylmethyl-7-methyl-8-trifluoromethyl-2,3,4,5-tetrahydro-1H-benzo[b]azepin-5-yl)-amino]-tetrazol-2-yl}-ethanol], the change in vivo at 30 mg/kg amounted to 128%. With `Cc1cc2c(cc1C(F)(F)F)N(Cc1cncc(C(=O)O)c1)CCC[C@@H]2N(Cc1cc(C(F)(F)F)cc(C(F)(F)F)c1)c1nnn(C)n1` [Example 142, (S)-5-{5-[(3,5-Bis-trifluoromethyl-benzyl)-(2-methyl-2H-tetrazol-5-yl)-amino]-7-methyl-8-trifluoromethyl-2,3,4,5-tetrahydro-benzo[b]azepin-1-ylmethyl}-nicotinic acid hydrochloride] the figure was 90%.
